{"source": "patent US5710154A", "about": "“Tetrahydrofuran antifungals” (Schering Corporation, priority 1995, dated 1998)", "key": {"[1]": {"assay": "Serum levels following oral dosing, mice", "assay_type": "in vivo", "details": "methyl cellulose formulation, compared to azoles of similar structure"}, "[2]": {"assay": "Serum levels following oral dosing, rats", "assay_type": "in vivo", "details": "methyl cellulose formulation, compared to azoles of similar structure"}, "[3]": {"assay": "Serum levels following oral dosing, dogs", "assay_type": "in vivo", "details": "methyl cellulose formulation, compared to azoles of similar structure"}, "[4]": {"assay": "Serum levels following oral dosing, monkeys", "assay_type": "in vivo", "details": "methyl cellulose formulation, compared to azoles of similar structure"}, "[5]": {"assay": "Serum half life and tissue distribution following O.D. dosing", "assay_type": "in vivo, mice, rats, dogs and monkeys"}, "[6]": {"system": "Aspergillus", "assay": "In vitro antifungal activity, broth dilution (MIC/MFC), Aspergillus", "assay_type": "cell-based, Aspergillus (flavus, fumigatus and other species)", "details": "37 strains", "protocol": "(§1) The in vitro antifungal activity tests were performed via conventional broth dilution methods in Sabouraud dextrose broth (\"SDB\") medium and Eagles Minimum Essential Medium (\"EMEM\") against a large number of fungi. Minimum Inhibitory Concentrations (\"MICs\") were measured after 24, 48 and 72 hour tests. In many cases, Minimum Fungicidial Concentrations (\"MFCS\") were measured after 48 and 72 hours."}, "[7]": {"system": "Candida albicans", "assay": "In vitro antifungal activity, broth dilution (MIC/MFC), Candida albicans", "assay_type": "cell-based", "details": "26 strains", "protocol": "as §1"}, "[8]": {"system": "Candida krusei", "assay": "In vitro antifungal activity, broth dilution (MIC/MFC), Candida krusei", "assay_type": "cell-based", "details": "16 strains", "protocol": "as §1"}, "[9]": {"system": "Candida tropicalis & stellatoidea", "assay": "In vitro antifungal activity, broth dilution (MIC/MFC), Candida tropicalis & stellatoidea", "assay_type": "cell-based", "details": "5 strains", "protocol": "as §1"}, "[10]": {"system": "Candida glabrata", "assay": "In vitro antifungal activity, broth dilution (MIC/MFC), Candida glabrata", "assay_type": "cell-based", "details": "9 strains", "protocol": "as §1"}, "[11]": {"system": "Cryptococcus neoformans", "assay": "In vitro antifungal activity, broth dilution (MIC/MFC), Cryptococcus neoformans", "assay_type": "cell-based", "details": "3 strains", "protocol": "as §1"}, "[12]": {"system": "Dermatophytes", "assay": "In vitro antifungal activity, broth dilution (MIC/MFC), dermatophytes", "assay_type": "cell-based, T. rubrum, T. mentagrophytes, and T. tonsurans", "details": "6 strains"}}, "data": [{"smiles": "CCC(C(C)O)n1ncn(-c2ccc(N3CCN(c4ccc(OCC5COC(Cn6cncn6)(c6ccc(F)cc6F)C5)cc4)CC3)cc2)c1=O", "note": "(stereo not drawn) [drawing 21]", "values": [{"measurement": "serum levels", "setting": "[1]", "result": "consistently higher serum levels"}, {"measurement": "serum levels", "setting": "[2]", "result": "consistently higher serum levels"}, {"measurement": "serum levels", "setting": "[3]", "result": "consistently higher serum levels"}, {"measurement": "serum levels", "setting": "[4]", "result": "consistently higher serum levels"}, {"measurement": "tissue distribution", "setting": "[5]", "result": "good tissue distribution"}]}, {"smiles": "CCC(C(C)O)n1ncn(-c2ccc(N3CCN(c4ccc(OCC5COC(Cn6cncn6)(c6ccc(F)cc6F)C5)cc4)CC3)cc2)c1=O", "note": "(stereo not drawn) [drawing 26]", "values": [{"measurement": "Percentage of strains with MFCs ≤1 mcg/ml", "setting": "[6]", "result": 50, "unit": "%"}, {"measurement": "Percentage of strains with MFCs ≤1 mcg/ml", "setting": "[7]", "result": 100, "unit": "%"}, {"measurement": "Percentage of strains with MFCs ≤1 mcg/ml", "setting": "[8]", "result": 88, "unit": "%"}, {"measurement": "Percentage of strains with MFCs ≤1 mcg/ml", "setting": "[9]", "result": 100, "unit": "%"}, {"measurement": "Percentage of strains with MFCs ≤1 mcg/ml", "setting": "[10]", "result": 22, "unit": "%"}, {"measurement": "Percentage of strains with MFCs ≤1 mcg/ml", "setting": "[11]", "result": 100, "unit": "%"}, {"measurement": "Percentage of strains with MFCs ≤1 mcg/ml", "setting": "[12]", "result": 67, "unit": "%"}]}, {"smiles": "CCC(C(C)O)n1ncn(-c2ccc(N3CCN(c4ccc(OCC5COC(Cn6cncn6)(c6ccc(F)cc6F)C5)cc4)CC3)cc2)c1=O", "note": "(stereo not drawn) [drawing 27]", "values": [{"measurement": "Percentage of strains with MFCs ≤1 mcg/ml", "setting": "[6]", "result": 62, "unit": "%"}, {"measurement": "Percentage of strains with MFCs ≤1 mcg/ml", "setting": "[7]", "result": 100, "unit": "%"}, {"measurement": "Percentage of strains with MFCs ≤1 mcg/ml", "setting": "[8]", "result": 94, "unit": "%"}, {"measurement": "Percentage of strains with MFCs ≤1 mcg/ml", "setting": "[9]", "result": 100, "unit": "%"}, {"measurement": "Percentage of strains with MFCs ≤1 mcg/ml", "setting": "[10]", "result": 22, "unit": "%"}, {"measurement": "Percentage of strains with MFCs ≤1 mcg/ml", "setting": "[11]", "result": 100, "unit": "%"}, {"measurement": "Percentage of strains with MFCs ≤1 mcg/ml", "setting": "[12]", "result": 83, "unit": "%"}]}, {"smiles": "CCC(C(C)O)n1ncn(-c2ccc(N3CCN(c4ccc(OCC5COC(Cn6cncn6)(c6ccc(F)cc6F)C5)cc4)CC3)cc2)c1=O", "note": "(stereo not drawn) [drawing 28]", "values": [{"measurement": "Percentage of strains with MFCs ≤1 mcg/ml", "setting": "[6]", "result": 89, "unit": "%"}, {"measurement": "Percentage of strains with MFCs ≤1 mcg/ml", "setting": "[7]", "result": 100, "unit": "%"}, {"measurement": "Percentage of strains with MFCs ≤1 mcg/ml", "setting": "[8]", "result": 100, "unit": "%"}, {"measurement": "Percentage of strains with MFCs ≤1 mcg/ml", "setting": "[9]", "result": 100, "unit": "%"}, {"measurement": "Percentage of strains with MFCs ≤1 mcg/ml", "setting": "[10]", "result": 22, "unit": "%"}, {"measurement": "Percentage of strains with MFCs ≤1 mcg/ml", "setting": "[11]", "result": 100, "unit": "%"}, {"measurement": "Percentage of strains with MFCs ≤1 mcg/ml", "setting": "[12]", "result": 100, "unit": "%"}]}, {"smiles": "CCC(C(C)O)n1ncn(-c2ccc(N3CCN(c4ccc(OCC5COC(Cn6cncn6)(c6ccc(F)cc6F)C5)cc4)CC3)cc2)c1=O", "note": "(stereo not drawn) [drawing 30]", "values": [{"measurement": "MIC 90 (Minimum Inhibitory Concentrations for 90% of the strains)", "setting": "[8]", "result": ".058 MCG/ML"}, {"measurement": "MIC 90 (Minimum Inhibitory Concentrations for 90% of the strains)", "setting": "[9]", "result": ".117 MCG/ML"}, {"measurement": "MIC 90 (Minimum Inhibitory Concentrations for 90% of the strains)", "setting": "[11]", "result": ".05 MCG/ML"}, {"measurement": "MIC 90 (Minimum Inhibitory Concentrations for 90% of the strains)", "setting": "[12]", "result": ".165 MCG/ML"}]}, {"smiles": "CCC(C(C)O)n1ncn(-c2ccc(N3CCN(c4ccc(OCC5COC(Cn6cncn6)(c6ccc(F)cc6F)C5)cc4)CC3)cc2)c1=O", "note": "(stereo not drawn) [drawing 31]", "values": [{"measurement": "MIC 90 (Minimum Inhibitory Concentrations for 90% of the strains)", "setting": "[6]", "result": ".096 MCG/ML"}, {"measurement": "MIC 90 (Minimum Inhibitory Concentrations for 90% of the strains)", "setting": "[7]", "result": ".174 MCG/ML"}, {"measurement": "MIC 90 (Minimum Inhibitory Concentrations for 90% of the strains)", "setting": "[8]", "result": ".014 MCG/ML"}, {"measurement": "MIC 90 (Minimum Inhibitory Concentrations for 90% of the strains)", "setting": "[9]", "result": ".117 MCG/ML"}, {"measurement": "MIC 90 (Minimum Inhibitory Concentrations for 90% of the strains)", "setting": "[10]", "result": 17.1, "unit": "MCG/ML"}, {"measurement": "MIC 90 (Minimum Inhibitory Concentrations for 90% of the strains)", "setting": "[11]", "result": ".007 MCG/ML"}, {"measurement": "MIC 90 (Minimum Inhibitory Concentrations for 90% of the strains)", "setting": "[12]", "result": ".101 MCG/ML"}]}, {"smiles": "CCC(C(C)O)n1ncn(-c2ccc(N3CCN(c4ccc(OCC5COC(Cn6cncn6)(c6ccc(F)cc6F)C5)cc4)CC3)cc2)c1=O", "note": "(stereo not drawn) [drawing 32]", "values": [{"measurement": "MIC 90 (Minimum Inhibitory Concentrations for 90% of the strains)", "setting": "[6]", "result": ".112 MCG/ML"}, {"measurement": "MIC 90 (Minimum Inhibitory Concentrations for 90% of the strains)", "setting": "[7]", "result": ".139 MCG/ML"}, {"measurement": "MIC 90 (Minimum Inhibitory Concentrations for 90% of the strains)", "setting": "[8]", "result": ".12 MCG/ML"}, {"measurement": "MIC 90 (Minimum Inhibitory Concentrations for 90% of the strains)", "setting": "[9]", "result": ".354 MCG/ML"}, {"measurement": "MIC 90 (Minimum Inhibitory Concentrations for 90% of the strains)", "setting": "[10]", "result": 28.8, "unit": "MCG/ML"}, {"measurement": "MIC 90 (Minimum Inhibitory Concentrations for 90% of the strains)", "setting": "[12]", "result": ".707 MCG/ML"}]}, {"smiles": "OC(Cn1cncn1)(Cn1cncn1)c1ccc(F)cc1F", "note": "[fluconazole, reference compound]", "values": [{"measurement": "Percentage of strains with MFCs ≤1 mcg/ml", "setting": "[6]", "result": 0, "unit": "%"}, {"measurement": "Percentage of strains with MICs ≤1 mcg/ml", "setting": "[6]", "result": 0, "unit": "%"}, {"measurement": "Percentage of strains with MFCs ≤1 mcg/ml", "setting": "[7]", "result": 100, "unit": "%"}, {"measurement": "Percentage of strains with MICs ≤1 mcg/ml", "setting": "[7]", "result": 100, "unit": "%"}, {"measurement": "Percentage of strains with MFCs ≤1 mcg/ml", "setting": "[8]", "result": 0, "unit": "%"}, {"measurement": "Percentage of strains with MICs ≤1 mcg/ml", "setting": "[8]", "result": 0, "unit": "%"}, {"measurement": "Percentage of strains with MFCs ≤1 mcg/ml", "setting": "[9]", "result": 100, "unit": "%"}, {"measurement": "Percentage of strains with MICs ≤1 mcg/ml", "setting": "[9]", "result": 100, "unit": "%"}, {"measurement": "Percentage of strains with MFCs ≤1 mcg/ml", "setting": "[10]", "result": 0, "unit": "%"}, {"measurement": "Percentage of strains with MICs ≤1 mcg/ml", "setting": "[10]", "result": 0, "unit": "%"}, {"measurement": "Percentage of strains with MFCs ≤1 mcg/ml", "setting": "[11]", "result": 0, "unit": "%"}, {"measurement": "Percentage of strains with MICs ≤1 mcg/ml", "setting": "[11]", "result": 0, "unit": "%"}, {"measurement": "Percentage of strains with MFCs ≤1 mcg/ml", "setting": "[12]", "result": 0, "unit": "%"}, {"measurement": "Percentage of strains with MICs ≤1 mcg/ml", "setting": "[12]", "result": 100, "unit": "%"}]}]}
